Assay results taken from patent publication EP2062893A1, “Fused imidazoles for cancer treatment” (Bayer Schering Pharma AG, priority 2007, dated 2009).

Tests used:
Assay type in all cases: cell-based
OvCAR3 cells = test: Cellular proliferation / Cytotoxicity assay (Alamar Blue / Resazurin cell viability); conditions: Homo sapiens, OVCAR-3, 48h incubation, read-out: Anti-proliferative / Cytotoxic activity (OvCAR3 cells)
Description: Wells containing untreated control cells were filled with 200 µl DMEM (Dulbecco's Modified Eagle Medium) containing 0.5vol% v:v DMSO. The cells are then incubated with the substances for 48h at 37°C in a humidified atmosphere containing 5vol% CO2. To determine the viability of the cells, 20 µl of a Resazurin solution (90mg / I) are added. […] Viabilities are expressed as % values.

[1] = test system: phosphorylated Akt protein; test: Cellular PI3K / Akt pathway assay (phospho-Akt Ser473 sandwich ELISA); conditions: Homo sapiens; MCF7 cells, ß-Heregulin (20ng/ml) stimulation, 48h incubation
Description: In order to study the cellular activity of the compounds according to the present invention, an Enzyme Linked Immunosorbent Assay (ELISA)-based assay has been used specific phospho-AKT. The assay is based on a Sandwich ELISA kit (PathScan™ Phospho-Akt1 (Ser473); Cell Signaling, USA; #7160). The ELISA Kit detects endogenous levels of phosphorylated Akt protein. A phospho-Akt (Ser473) antibody (Cell Signaling, USA; #9271) has been coated onto the microwells. After incubation with cell lysates, the coated antibody captures the phosphorylated Akt protein. Following extensive washing, Akt1 monoclonal antibody (Cell Signaling, USA; #2967) is added to detect the captured phospho-Akt1 protein. HRP-linked anti-mouse antibody (HRP: horseradish peroxidase; Cell Signaling, USA; #7076) is then used to recognize the bound detection antibody. HRP substrate (= 3,3',5,5'-tetramethylbenzidine (TMB); Cell Signaling, USA; #7160) is added to develop colour. The magnitude of optical density for this developed color is proportional to the quantity of phosphorylated Akt protein. MCF7 cells (ATCC HTB-22) are seeded into 96 well fate bottom plates at a density of 10000 cells/well. 24 hours after seeding, the cells are serum starved using low-serum medium (IMEM media including 0,1% charcoal treated FCS (FCS: fetal calf serum)). […] To stimulate Akt phosphorylation, ß-Heregulin (20ng/ml ß-HRG) is added in parallel to the compounds. Wells containing unstimulated control cells (no ß-Heregulin stimulation) are incubated with or without the diluted compound. Wells containing untreated control cells (no compound) are filled with medium containing 0.5% v:v DMSO and are or are not stimulated with ß-Heregulin. Cells are harvested and lysed with brief sonification in 1x cell lysis buffer (20mM Tris (pH7.5), 150 mM NaCl, 1 mM ethylene diaminetetraacetate (EDTA), 1 mM ethylene glycolbis(2-aminoethyl)-N,N,N',N'-tetraacetic acid (EGTA), 1vol% Triton X-100, 2.5mM sodium pyrophosphate, 1 mM β-glycerolphosphate, 1 mM Na3VO4, 1µg/ml leupeptin). The lysate is centrifuged for 10 min. at 4°C and the supernatant is transferred to a new tube. 100 µl of sample diluent (0.1vol% Tween-20, 0.1vol% sodium azide in phosphate buffered saline (PBS)) are added to a microcentrifuge tube and 100 µl of cell lysate are transferred into the tube and vortexed. 100 µl of each diluted cell lysate are added to the appropriate ELISA well, and incubated overnight at 4°C. The plates are washed 4 times with 1x wash buffer (1vol% tween-20, 0.33vol% thymol, in PBS). Next 100 µl of detection antibody (Akt1 (2H10) monoclonal detection antibody; Cell Signaling, USA; #2967) are added to each well and incubation continued for 1h at 37°C. The washing procedure is repeated between each step. 100µl of secondary antibody (anti-mouse IgG HRP-linked antibody; Cell Signaling, USA; #7076) are added to each well and incubated for 30 min. at 37°C. Than, 100µl of TMB substrate (0.05% 3,3',5,5' tetramethylbenzidine, 0.1 % hydrogen peroxide, complex polypeptides in a buffered solution; Cell Signaling, USA; #7160) are added to each well and incubated for 30 min. at 25°C. Finally 100 µl of STOP solution (0.05vol% α and β unsaturated carbonyl compound) are added to each well and the plate are shaked gently. The absorbance is measured at λ =450 nm (Wallac Victor2; Perkin Elmer, USA) within 30 min. after adding the STOP solution. The analysis of the data is performed using a statistical program (Excel; Microsoft, USA). Preferred compounds show an inhibitory activity towards Akt phosphorylation below 10µM.

phosphorylated GSK3 = test: Cellular pGSK3 assay (phospho-GSK3 Ser9 sandwich ELISA); conditions: Homo sapiens; MCF7 cells, 48h incubation, IC50 of pGSK3 inhibition
Description: In order to study the cellular activity of the compounds according to the present invention, an ELISA-based assay has been established for the phosphorylated protein glycogen synthetase kinase 3 (GSK3). The assay is based on a solid phase sandwich ELISA that detects endogenous levels of phosphorylated GSK3 using a phospho-GSK3 (Ser9) specific antibody (BioSource International, Inc.; Catalog #KHO0461). After incubation with cell lysates, the coated antibody captures the phosphorylated GSK3 protein. Following extensive washing, GSK3 polyclonal antibody is added to detect the captured phospho-GSK3 protein. Secondary antibody (anti-rabbit IgG-HRP) is then used to recognize the bound detection antibody. After the second incubation and washing to remove all the excess anti-rabbit IgG-HRP, a substrate solution is added, which is acted upon by the bound enzyme to produce color. The intensity of this colored product is directly proportional to the concentration of GSK-3β [pS9] present in the original specimen. MCF7 cells (ATCC HTB-22) were seeded into 96 well fate bottom plates at a density of 10000 cells/well. After 24 h 1 µl each of the compound dilutions (test compounds were dissolved as 10 mM solutions in dimethylsulfoxide (DMSO) and subsequently diluted) were added into each well of the 96 well plates and incubated for 48h at 37°C in a humidified athmosphere containing 5% CO2. Cells were harvested and lysed in cell extraction buffer (10 mM Tris, pH 7.4, 100 mM NaCl, 1 mM EDTA, 1 mM EGTA, 1 mM NaF, 20 mM Na4P2O7, 2 mM Na3VO4, 1% Triton X-100, 10vol% glycerol, 0.1vol% SDS, 0.5vol% deoxycholate, 1 mM phenylmethylsulfonylfluorid (PMSF)). The lysate were centrifuged for 10 min. at 4°C and the supernatant were transferred to a new tube. 50 µl of sample diluent (standard diluent buffer, Biosource) were added and 100 µl of cell lysate transferred into the tube and vortexed. 100 µl of each diluted cell lysate were added to the appropriate ELISA well plate and incubated for 3h at room temperature. The plates were washed 4 times with 1x wash buffer (Biosource). 50 µl of detection antibody (GSK3 (Ser9) detection antibody; BioSource) were added to each well and incubated for 30 min. at room temperature. The washing procedure was repeated between each step. 100µl of HRP-linked secondary antibody (anti-mouse IgG HRP-linked antibody) were added to each well and incubated for 30 min. at room temperature. 100µl of TMB substrate (0.05vol% 3,3',5,5' tetramethylbenzidine, 0.1vol% hydrogen peroxide, complex polypeptides in a buffered solution; Biosource) were added to each well and incubated for 30 min. at room temperature. Finally 100 µl of Stop solution (0.05vol% α and β unsaturated carbonyl compound) were added to each well and the plate were shaked gently for a few seconds. The absorbance was measured at λ = 450 nm (Wallac Victor2; Perkin Elmer, USA) within 30 min. after adding the stop solution. The analysis of the data was performed using a statistical program (Excel; Microsoft, USA) and the IC50 of pGSK3 inhibition was determined.

SMILES	IC50 [1] [µM]	IC50 (phosphorylated GSK3) [µM]	IC50 (OvCAR3 cells) [µM]
COc1ccc(-c2c(-c3ccc(CN4CCC(c5n[nH]c(-c6ccccn6)n5)CC4)cc3)nc3ccccn23)cc1 [Example 15, 3-(4-methoxyphenyl)-2-(4-{[4-(5-pyridin-2-yl-1,2,4-triazol-3-yl)piperidin-1-yl]methyl}phenyl)imidazo[1,2-a]pyridine]	> 10	1 to 10	> 10
Fc1ccc2nc(-c3ccc(CN4CCC(c5n[nH]c(-c6ccccn6)n5)CC4)cc3)c(-c3ccccc3)n2c1 [Example 22, 6-fluoro-3-phenyl-2-(4-{[4-(5-pyridin-2-yl-1,2,4-triazol-3-yl)piperidin-1-yl]methyl}phenyl)imidazo[1,2-a]pyridine]	< 1	1 to 10	< 10
N#Cc1ccn2c(-c3ccccc3)c(-c3ccc(CN4CCC(c5n[nH]c(-c6ccccn6)n5)CC4)cc3)nc2c1 [Example 29, 3-phenyl-2-(4-{[4-(5-pyridin-2-yl-1,2,4-triazol-3-yl)piperidin-1-yl]methyl}phenyl)imidazo[1,2-a]pyridine-7-carbonitrile]	< 1	< 1	< 10
c1ccc(-c2c(-c3ccc(CN4CCC(c5n[nH]c(-c6ccccn6)n5)CC4)cc3)nc3sccn23)cc1 [Example 10, 5-phenyl-6-(4-{[4-(5-pyridin-2-yl-1,2,4-triazol-3-yl)piperidin-1-yl]methyl}phenyl)imidazo[2,1-b][1,3]thiazole]	< 1	< 1	< 10
COc1ccc(-c2c(-c3ccc(CN4CCC(c5n[nH]c(-c6ccccn6)n5)CC4)cc3)nc3ncccn23)cc1 [Example 20, 3-(4-methoxyphenyl)-2-(4-{[4-(5-pyridin-2-yl-1,2,4-triazol-3-yl)piperidin-1-yl]methyl}phenyl)imidazo[1,2-a]pyrimidine]	> 10	> 10	> 10
c1ccc(-c2nc(C3CCN(Cc4ccc(-c5nc6ncccn6c5-c5nccs5)cc4)CC3)n[nH]2)nc1 [Example 39, 2-(4-{[4-(5-pyridin-2-yl-1,2,4-triazol-3-yl)piperidin-1-yl]methyl}phenyl)-3-(1,3-thiazol-2-yl)imidazo[1,2-a]pyrimidine]	< 1	1 to 10	< 10
Brc1cccn2c(-c3ccccc3)c(-c3ccc(CN4CCC(c5n[nH]c(-c6ccccn6)n5)CC4)cc3)nc12 [Example 25, 8-bromo-3-phenyl-2-(4-{[4-(5-pyridin-2-yl-1,2,4-triazol-3-yl)piperidin-1-yl]methyl}phenyl)imidazo[1,2-a]pyridine]	< 1	< 1	< 10
c1ccc(-c2c(-c3ccc(CN4CCC(c5n[nH]c(-c6ccccn6)n5)CC4)cc3)nc3scnn23)cc1 [Example 11, 5-phenyl-6-(4-{[4-(5-pyridin-2-yl-1,2,4-triazol-3-yl)piperidin-1-yl]methyl}phenyl)imidazo[2,1-b][1,3,4]thiadiazole]	< 1	1 to 10	< 10

Second part, led by results:

IC50 [1] [µM]	IC50 (phosphorylated GSK3) [µM]	SMILES	IC50 (OvCAR3 cells) [µM]
1 to 10	1 to 10	Fc1ccc(-c2c(-c3ccc(CN4CCC(c5n[nH]c(-c6ccccn6)n5)CC4)cc3)nc3ncccn23)cc1 [Example 18, 3-(4-fluorophenyl)-2-(4-{[4-(5-pyridin-2-yl-1,2,4-triazol-3-yl)piperidin-1-yl]methyl}phenyl)imidazo[1,2-a]pyrimidine]	< 10
< 1	1 to 10	c1ccc(-c2c(-c3ccc(CN4CCC(c5n[nH]c(-c6ccccn6)n5)CC4)cc3)nc3cnccn23)cc1 [Example 37, 3-phenyl-2-(4-{[4-(5-pyridin-2-yl-1,2,4-triazol-3-yl)piperidin-1-yl]methyl}phenyl)imidazo[1,2-a]pyrazine]	< 10
< 1	1 to 10	c1ccc(-c2c(-c3ccc(CN4CCC(c5n[nH]c(-c6ccccn6)n5)CC4)cc3)nc3ncccn23)cc1 [Example 1, 3-phenyl-2-(4-{[4-(5-pyridin-2-yl-1,2,4-triazol-3-yl)piperidin-1-yl]methyl}phenyl)imidazo[1,2-a]pyrimidine]	< 10
